# Key:
# [1] = Clearance in Cynomolgous monkey at 1 mg/kg, iv measured upto 24 hrs by LC-MS/MS analysis; type: ADME, organism-based, Macaca fascicularis; conditions: cynomolgus monkey, in vivo
# [2] = Toxicity in rat assessed as increase in liver weight at 60 to 120 mg/kg/day for 28 days; type: organism-based; conditions: in vivo, 672 h, dose 60-120 mg/kg/day, time 28 day
# [3] = Toxicity in rat assessed as increase in salivation at 120 mg/kg/day for 28 days; type: organism-based; conditions: in vivo, 672 h, time 28 day
# Cytochrome P450 3A4 = Cytochrome P450 3A4 (Homo sapiens, UniProt P08684); experiment: Inhibition of CYP3A4 in human liver microsomes in presence of NADPH by LC-MS/MS analysis; type: ADME, Microsome
# Sequence of Cytochrome P450 3A4 (P08684 whole entry): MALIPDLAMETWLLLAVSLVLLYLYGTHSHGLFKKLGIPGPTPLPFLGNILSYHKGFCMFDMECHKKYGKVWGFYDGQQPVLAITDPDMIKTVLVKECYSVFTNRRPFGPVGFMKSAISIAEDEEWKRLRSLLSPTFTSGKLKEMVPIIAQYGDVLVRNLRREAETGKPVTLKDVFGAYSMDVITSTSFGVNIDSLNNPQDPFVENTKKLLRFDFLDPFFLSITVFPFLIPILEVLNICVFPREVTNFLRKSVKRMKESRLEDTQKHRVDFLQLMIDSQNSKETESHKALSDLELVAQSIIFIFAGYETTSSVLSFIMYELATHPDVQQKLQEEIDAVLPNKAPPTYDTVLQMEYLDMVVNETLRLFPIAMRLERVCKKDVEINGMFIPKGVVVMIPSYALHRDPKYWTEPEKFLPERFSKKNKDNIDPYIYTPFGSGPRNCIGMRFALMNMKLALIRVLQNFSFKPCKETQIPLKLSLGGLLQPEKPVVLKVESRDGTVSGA
# [4] = Toxicity in rat assessed as decrease in body weight at 120 mg/kg/day for 28 days; type: organism-based; conditions: in vivo, 672 h, time 28 day
# [5] = AUC (last) in Tufted capuchin monkey at 10 mg/kg, po measured for 24 hrs by LC-MS/MS analysis; type: ADME, organism-based; conditions: sapajus apella, in vivo
# [6] = Volume of distribution at steady state in Beagle dog at 5 mg/kg, po or 1 mg/kg, iv measured upto 24 hrs by LC-MS/MS analysis; type: ADME, organism-based, Canis lupus familiaris; conditions: in vivo
# [7] = Clearance in overnight-fasted Sprague-Dawley rat at 1 mg/kg, iv measured upto 24 hrs by LC-MS/MS analysis; type: ADME, organism-based; conditions: in vivo
# [8] = Tmax in Tufted capuchin monkey at 10 mg/kg, po measured for 24 hrs by LC-MS/MS analysis; type: ADME, organism-based; conditions: sapajus apella, in vivo
# [9] = AUC (last) in overnight-fasted Sprague-Dawley rat at 5 mg/kg, po measured upto 24 hrs by LC-MS/MS analysis; type: ADME, organism-based; conditions: in vivo
# [10] = Genotoxicity in Salmonella typhimurium TA97 by Ames test; type: toxicity; conditions: salmonella enterica subsp. enterica serovar typhimurium
# [11] = Toxicity in cynomolgous monkey assessed as distended abdomen at 200 mg/kg/day for 28 days consecutively; type: organism-based, Macaca fascicularis; conditions: cynomolgus monkey, in vivo, 672 h, time 28 day
# [12] = Genotoxicity in Salmonella typhimurium TA100 by Ames test; type: toxicity; conditions: salmonella enterica subsp. enterica serovar typhimurium
# Sapajus apella [13] = experiment: Urate lowering effect in Tufted capuchin monkey assessed as serum xanthine level at 30 mg/kg/day, po qd for 3 days consecutively; type: functional; conditions: time 3 day
# [14] = AUC (0 to t) in female cynomolgous monkey at 30 mg/kg/day for 28 days; type: ADME, organism-based, Macaca fascicularis; conditions: cynomolgus monkey, in vivo, time 28 day
# [15] = Toxicity in cynomolgous monkey assessed as increase in vomiting at 90 to 200 mg/kg/day for 28 days consecutively; type: organism-based, Macaca fascicularis; conditions: cynomolgus monkey, in vivo, 672 h; dose 90-200 mg/kg/day, time 28 day
# [16] = AUC (0 to t) in male cynomolgous monkey at 30 mg/kg/day for 28 days; type: ADME, organism-based, Macaca fascicularis; conditions: cynomolgus monkey, in vivo, time 28 day
# [17] = Toxicity in rat; conditions: in vivo
# [18] = Genotoxicity in Salmonella typhimurium TA98 by Ames test; type: toxicity; conditions: salmonella enterica subsp. enterica serovar typhimurium
# [19] = Toxicity in rat assessed as increase in CHOL level at 120 mg/kg/day for 28 days; type: organism-based; conditions: in vivo, 672 h, time 28 day
# [20] = AUC (0 to t) in male rat at 60 mg/kg/day for 28 days; type: ADME, organism-based; conditions: in vivo, time 28 day
# [21] = Tmax in Tufted capuchin monkey at 100 mg/kg, po measured for 24 hrs by LC-MS/MS analysis; type: ADME, organism-based; conditions: sapajus apella, in vivo
# Sapajus apella [22] = conditions: dose 100.0 mg/kg/day, route po, time 3.0 day
# [23] = Toxicity in cynomolgous monkey assessed as increase in fluid feces at 90 to 200 mg/kg/day for 28 days consecutively; type: organism-based, Macaca fascicularis; conditions: cynomolgus monkey, in vivo, 672 h; dose 90-200 mg/kg/day, time 28 day
# [24] = Inhibition of SLC (unknown origin); parameters: species or system Homo sapiens
# [25] = Cmax in Tufted capuchin monkey at 10 mg/kg, po measured for 24 hrs by LC-MS/MS analysis; type: ADME, organism-based; conditions: sapajus apella, in vivo
# Cytochrome P450 2D6 = Cytochrome P450 2D6 (Homo sapiens, UniProt P10635); experiment: Inhibition of CYP2D6 in human liver microsomes in presence of NADPH by LC-MS/MS analysis; type: ADME, Microsome
# Sequence of Cytochrome P450 2D6 (P10635 whole entry): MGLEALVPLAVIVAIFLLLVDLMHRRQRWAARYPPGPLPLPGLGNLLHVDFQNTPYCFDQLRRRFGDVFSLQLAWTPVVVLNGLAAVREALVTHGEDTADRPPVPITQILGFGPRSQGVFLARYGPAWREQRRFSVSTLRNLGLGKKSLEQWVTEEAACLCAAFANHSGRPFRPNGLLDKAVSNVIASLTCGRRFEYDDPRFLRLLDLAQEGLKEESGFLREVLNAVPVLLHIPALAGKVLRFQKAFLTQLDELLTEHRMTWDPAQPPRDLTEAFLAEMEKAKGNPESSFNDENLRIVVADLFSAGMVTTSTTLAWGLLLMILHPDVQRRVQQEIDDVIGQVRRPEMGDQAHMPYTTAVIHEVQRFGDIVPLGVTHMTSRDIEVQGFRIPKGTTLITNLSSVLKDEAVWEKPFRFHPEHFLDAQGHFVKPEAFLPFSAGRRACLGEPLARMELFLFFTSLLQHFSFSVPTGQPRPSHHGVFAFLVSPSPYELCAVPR
# [26] = Toxicity in rat assessed as diffuse hepatocytes hypertrophy at 120 mg/kg/day for 28 days by H and E staining based analysis; type: organism-based; conditions: in vivo, 672 h, time 28 day
# [27] = AUC (last) in overnight-fasted Sprague-Dawley rat at 1 mg/kg, iv measured upto 24 hrs by LC-MS/MS analysis; type: ADME, organism-based; conditions: in vivo
# [28] = Oral bioavailability in Beagle dog at 5 mg/kg measured upto 24 hrs by LC-MS/MS analysis; type: ADME, organism-based, Canis lupus familiaris; conditions: in vivo
# Sapajus apella [29] = conditions: dose 30.0 mg/kg/day, route po, time 3.0 day
# [30] = Toxicity in cynomolgous monkey assessed as development-limiting effect; parameters: species or system Macaca fascicularis; conditions: cynomolgus monkey, in vivo
# [31] = AUC (last) in Beagle dog at 1 mg/kg, iv measured upto 24 hrs by LC-MS/MS analysis; type: ADME, organism-based, Canis lupus familiaris; conditions: in vivo
# [32] = AUC (last) in Tufted capuchin monkey at 30 mg/kg, po measured for 24 hrs by LC-MS/MS analysis; type: ADME, organism-based; conditions: sapajus apella, in vivo
# [33] = Cmax in overnight-fasted Sprague-Dawley rat at 5 mg/kg, po measured upto 24 hrs by LC-MS/MS analysis; type: ADME, organism-based; conditions: in vivo
# [34] = Toxicity in rat assessed as increase in ALP level at 120 mg/kg/day for 28 days; type: organism-based; conditions: in vivo, 672 h, time 28 day
# [35] = Half life in Tufted capuchin monkey at 30 mg/kg, po measured for 24 hrs by LC-MS/MS analysis; type: ADME, organism-based; conditions: sapajus apella, in vivo
# [36] = Half life in overnight-fasted Sprague-Dawley rat at 5 mg/kg, po measured upto 24 hrs by LC-MS/MS analysis; type: ADME, organism-based; conditions: in vivo
# [37] = Toxicity in cynomolgous monkey assessed as decrease in food consumption at 90 to 200 mg/kg/day for 28 days consecutively; type: organism-based, Macaca fascicularis; conditions: cynomolgus monkey, in vivo, 672 h; dose 90-200 mg/kg/day, time 28 day
# [38] = Clearance in Beagle dog at 1 mg/kg, iv measured upto 24 hrs by LC-MS/MS analysis; type: ADME, organism-based, Canis lupus familiaris; conditions: in vivo
# [39] = Stability in human liver microsomes assessed as half life at 1 uM measured upto 60 mins in presence of NADPH by LC-MS/MS analysis; type: ADME, Microsome
# [40] = Volume of distribution at steady state in overnight-fasted Sprague-Dawley rat at 5 mg/kg, po or 1 mg/kg, iv measured upto 24 hrs by LC-MS/MS analysis; type: ADME, organism-based; conditions: in vivo
structure (smiles),measurement,setting,value
N#Cc1cc(-c2ccc(C(=O)O)c(O)c2)c2oc(F)cc2c1,clearance,[1],0.993 mL/min/kg
same,Activity,[2],Toxic
same,Activity,[3],Toxic
same,IC50,Cytochrome P450 3A4,> 50 µM
same,Activity,[4],Toxic
same,AUC(0-t) at 24 h,[5],4.34 µg·h/mL
same,Vdss,[6],1.71 L/kg
same,clearance,[7],1.51 mL/min/kg
same,Tmax,[8],0.8 h
same,AUC(0-t) at 24 h,[9],81.7 µg·h/mL
same,Activity,[10],Non-Toxic
same,Activity,[11],Toxic
same,Activity,[12],Non-Toxic
same,Activity,Sapajus apella [13],6.19 µg·h/mL
same,AUC(0-t) at 672 h,[14],336 µg·h/mL
same,Activity,[15],Toxic
same,AUC(0-t) at 672 h,[16],339 µg·h/mL
same,MTD,[17],450 mg/kg
same,Activity,[18],Non-Toxic
same,Activity,[19],Toxic
same,AUC(0-t) at 672 h,[20],2250 µg·h/mL
same,Tmax,[21],0.9 h
same,AUC,Sapajus apella [22],357000 ng·h/mL
same,Activity,[23],Toxic
same,IC50,[24],> 0.628 µM
same,Cmax,[25],2470 ng/mL
same,IC50,Cytochrome P450 2D6,> 50 µM
same,Activity,[26],Toxic
same,AUC(0-t) at 24 h,[27],10.9 µg·h/mL
same,bioavailability,[28],69.9%
same,AUC,Sapajus apella [29],504000 ng·h/mL
same,Activity,[30],Non-Toxic
same,AUC(0-t) at 24 h,[31],3.13 µg·h/mL
same,AUC(0-t) at 24 h,[32],31.6 µg·h/mL
same,Cmax,[33],17200 ng/mL
same,Activity,[34],Toxic
same,half-life,[35],3.1 h
same,half-life,[36],2.84 h
same,Activity,[37],Toxic
same,clearance,[38],5.07 mL/min/kg
same,half-life at 1 µM,[39],3.75 h
same,Vdss,[40],0.31 L/kg
